Converted amounts (≈) assume the structure as drawn. Where two headings read alike, the source gives them in different places. A value given as a limit tells only on which side of the number the result lay.

Results on six compounds are retold here after US4965280A, “Antifungal carbinols” (E. I. Du Pont de Nemours and Company, priority 1989, dated 1990).

Test [1] relates to Pythium aphanadermatum. Put plainly: Example J cucumber damping off. It is filed as in vivo. To be noted: Pythium, 336 h; 5 kg/ha; read-out: disease control rating, Ex. J. A digest of the protocol: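 Seeds and soil were inoculated with a mix of sand, cereal and Pythium aphanadermatum mycelium, the fungus responsible for cucumber damping off. They were kept in a growth chamber at 30° C. for 14 days, and disease was then rated to assess control.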

The subject of test [2] is Erysiphe graminis f. sp. tritici. Put plainly: Example D wheat powdery mildew. It is filed as in vivo. The conditions noted are these: Blumeria graminis, 144 h, read-out: disease control rating, Ex. D. In outline: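 First, compound taken up in acetone, 6% of the end volume. Next, suspended in water with 250 ppm polyhydric alcohol esters at 100 or 20 ppm. Last, applied to wheat seedlings until run-off.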

Test [3] deals with Botrytis cinerea. The test can be described thus: Example C bean grey mold. It is filed as in vivo. The conditions noted are these: Botrytis cinerea, 24 h, read-out: disease control rating, Ex. C. A digest of the protocol: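 At 20 or 100 ppm, each compound was applied as an aqueous suspension (acetone 6% final; TREM 014 250 ppm) sprayed onto young broad bean plants to the point of run-off.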

Test [4] relates to Cercosporidium personatum. The test can be described thus: Example B Peanut Late Leafspot. It is filed as in vivo. The conditions noted are these: Nothopassalora personata, read-out: disease control rating, Ex. B. In outline:
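Dose 100 or 20 ppm; vehicle acetone 6% v/v final in water + 250 ppm surfactant; applied by spraying peanut seedlings to run-off.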

The subject of test [5] is Candida albicans ATCC 11651. Put plainly: In vivo systemic Candida infection in mice, primary assay. The conditions noted are these: Candida albicans, read-out: % Survival. Set-up: species or system Candida albicans; CF-1 female mice. In outline:
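CF-1 female mice (20 g, 10 per group) were infected IV with 0.2 ml of 1×10^7/ml C. albicans ATCC 11651, then given test compound subcutaneously at 50 or 150 mg/kg/day at 1 and 6 h post-infection and once daily for three more days. Survival was followed for 21 days against infected untreated mice; ≥70% protection at 14 days was scored active.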

For test [6], the system named is Rhizoctonia solani. The test can be described thus: Example K cotton blight. It is filed as in vivo. The conditions noted are these: 336 h, 5 kg/ha, read-out: disease control rating, Ex. K. The protocol: […] Seeds and soil were then inoculated with a mixture of sand, cereal and mycelium of the fungus Rhizoctonia solani, causal agent of cotton blight, and incubated in a growth chamber at 30° C. for 14 days. Disease ratings were then made.

Test [7] has as its system Phytophthora infestans. The test can be described thus: whole plant or invertebrate. The conditions noted are these: Phytophthora infestans, in Solanum lycopersicum, read-out: disease control rating, Ex. H, 100 PPM. It counts as in vivo.
The test system of test [8] is Plasmorpara viticola. Put plainly: Example I grape downy mildew. The conditions noted are these: read-out: disease control rating, Ex. I. It counts as in vivo. In outline:
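First, each compound is taken up in acetone amounting to 6% of the final volume. It is then suspended in purified water containing 250 ppm of the polyhydric alcohol ester surfactant TREM 014, at 100 or 20 ppm. Finally, the suspension is sprayed onto grape seedlings until run-off.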

In test [9] the test system is Venturia inaequalis. The test can be described thus: Example A apple scab. To be noted: read-out: disease control rating, Ex. A. It is filed as in vivo. In outline:
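First, compounds are taken up in acetone amounting to 6% of the final volume. Next, they are suspended in purified water with 250 ppm TREM 014 at 100 or 20 ppm. Finally, seedlings of apple are sprayed until run-off.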

Test [10] relates to Sclerotium rolfsii. The test can be described thus: Example M southern blight. It counts as in vivo. To be noted: Agroathelia rolfsii, 336 h; 5 kg/ha; read-out: disease control rating, Ex. M. The protocol:
[…] Seeds and soil were then inoculated with a mixture of sand, cereal and mycelium of the fungus Sclerotium rolfsii, causal agent of sourthern blight, and incubated in a growth chamber at 30° C. for 14 days. Disease ratings were then made.

For test [11], the system named is Pyricularia oryzae. The test can be described thus: whole plant or invertebrate. It counts as in vivo. To be noted: Pyricularia oryzae, 120 h; for pest or weed control at 100 ppm: read-out: disease control rating, Ex. E, 100 PPM.
For test [12], the system named is Candida albicans ATCC 11651. The test can be described thus: In vitro antifungal MIC, microtiter broth dilution. To be noted: Candida albicans, ATCC11651, 24 h, read-out: MIC values, C. albicans, 30°, 24 hours. A general note: In broth dilution the organism is exposed to a series of concentrations in liquid medium.
Test [13] concerns Puccinia recondita. The test can be described thus: Example G wheat leaf rust. It counts as in vivo. To be noted: read-out: disease control rating, Ex. G.
In test [14] the test system is Rhizoctonia solani. The test can be described thus: Example F rice sheath blight. It is filed as in vivo. The conditions noted are these: Rhizoctonia solani, 144 h, read-out: disease control rating, Ex. F. A digest of the protocol:
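Application rates were 100 or 20 ppm, delivered as a foliar spray to the point of run-off on rice seedlings. The formulation used 6% acetone in water with 250 ppm surfactant.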

The test system of test [15] is Fusarium oxysporum f. sp. cucumerinum. Put plainly: Example L cucumber wilt. It counts as in vivo. To be noted: 336 h, 5 kg/ha, read-out: disease control rating, Ex. L. As to the method: […] Seeds and soil were then inoculated with a mixture of sand, cereal and mycelium of the fungus Fusarium oxysporum f. sp. cucumerinum, causal agent of cucumber wilt, and incubated in a growth chamber at 30° C. for 14 days. Disease ratings were then made.

The subject of test [16] is Aspergillus fumigatus ATCC 28214. Put plainly: In vitro antifungal MIC, microtiter broth dilution. To be noted: Aspergillus fumigatus, ATCC28214, 24 h, read-out: MIC values, A. fumigatus, 30°, 24 hours.
[17] abbreviates: ATCC11651, 168 h, 150 mg/kg per day, day 7.
[18] abbreviates: ATCC11651, 336 h, 150 mg/kg per day, day 14.
The mark [19] stands for this setting: ATCC11651, 504 h, 150 mg/kg per day, day 21.

As usually defined, the MIC is the lowest concentration that inhibits growth of the organism. `C=C(c1ccc(F)cc1)C(Cn1cncn1)(OC(=O)NC)c1ccc(F)cc1` (stereo not shown) [Example 363]: the pest or weed control at 5000 g/ha in [1], in test [6], in test [10] and in test [15] was 0% each time. In addition, the pest or weed control at 100 ppm in [2] was found to be 28%; in test [3], 92%; in [4], 49%; in test [7], 0%; in test [8] it was 0%; in test [9] it was 0%. For the same compound, the pest or weed control at 100 ppm in test [11] amounted to 0%; in test [13], 38%; in test [14], 0%. Besides, the responders at 150 mg/kg stood at 10% in test [5] (ATCC11651, 168 h); 0% in test [5] (ATCC11651, 336 h); 0% in [5] (ATCC11651, 504 h). For the same compound, the MIC in test [12] and in [16] was 100 µg/mL (≈ 260 µM) in each case.

As for `C=CCOC(Cn1cncn1)(C(=C)c1ccc(F)cc1)c1ccc(F)cc1` (stereo not shown) [Example 360], the pest or weed control at 5000 g/ha in test [1], in test [6], in [10] and in [15] was 0% throughout. For the same compound, the pest or weed control at 100 ppm in [2] is 86%; in [3], 71%; in test [4], 100%; in test [7], 0%; in [8], 0%; in test [9] it was 88%. For the same compound, the pest or weed control at 100 ppm in test [11] worked out at 74%; in [13], 93%; in test [14] it was 49%. Moreover, the values for the responders at 150 mg/kg in test [5] (setting [17]), in test [5] (setting [18]) and in test [5] (setting [19]) were 100%, 60% and 40%, respectively. Further, the MIC was 0.8 µg/mL (≈ 2.18 µM) in test [12] and 100 µg/mL (≈ 272 µM) in test [16].

Take `C=C(c1ccccc1)C(O)(Cn1ncnc1S)c1ccc(F)cc1` (stereo not shown) [Example 1278]: the pest or weed control at 5000 g/ha in [1], in [6], in test [10] and in test [15] was 0% in each case. The pest or weed control at 100 ppm in test [2] was 85%; in test [3], 87%; in [4], 100%; in test [7], 0%; in test [8], 16%; in test [9], 100%. The results for the pest or weed control at 100 ppm in test [11], in test [13] and in test [14] were 17%, 100% and 36%, respectively. The responders at 150 mg/kg in test [5] (setting [17]), in test [5] (setting [18]) and in test [5] (setting [19]) was 0% throughout. Also, the MIC in [12] is ≤ 0.4 µg/mL; in test [16], > 100 µg/mL.

With `C=C(c1ccc(OC)cc1)C(O)(Cn1cncn1)c1ccc(F)cc1` (stereo not shown) [Example 726], the pest or weed control at 5000 g/ha came to 0% in test [1], 20% in test [6], 0% in test [10] and 0% in test [15]. Besides, the pest or weed control at 20 ppm is 81% in [2] (20 PPM); 23% in test [3] (20 PPM); 0% in test [4] (20 PPM); 75% in [9] (20 PPM); 0% in test [11] (read-out: disease control rating, Ex. E, 20 PPM); 100% in test [13] (20 PPM). Besides, the pest or weed control at 20 ppm in [14] (20 PPM) turned out to be 0%. The responders at 150 mg/kg in test [5] (setting [17]) was 100%; in test [5] (setting [18]), 80%; in test [5] (setting [19]), 10%. The pest or weed control at 100 ppm turned out to be 0% in [7], 38% in test [8], 0% in [11] and 0% in test [14]. Also, the MIC in [12] is 0.8 µg/mL (≈ 2.36 µM); in [16], 6.3 µg/mL (≈ 18.6 µM).

On to `C=C(c1cccc(Cl)c1)C(O)(Cn1cncn1)c1ccc(Cl)cc1Cl` (stereo not shown) [Example 40, 2-(2,4-Dichlorophenyl)-3-(3-chlorophenyl)-1-(1H-1,2,4-triazol-1-yl)-3-buten-2-ol], for which the pest or weed control at 5000 g/ha in [1], in test [6], in test [10] and in test [15] was 0% in each case. Also, the pest or weed control at 100 ppm turned out to be 91% in test [2]; 80% in test [3]; 100% in [4]; 0% in test [7]; 0% in test [8]; 19% in [9]. Moreover, the pest or weed control at 100 ppm came to 7% in [11], 96% in [13] and 61% in test [14]. Also, the responders at 150 mg/kg in [5] (setting [17]) and in [5] (setting [18]) was 100% throughout. The MIC in [12] was determined as 0.4 µg/mL (≈ 1.01 µM); in test [16] it was 3.2 µg/mL (≈ 8.11 µM).

As for `C=C(c1ccccc1Cl)C(O)(Cn1cncn1)c1ccc(Cl)cc1` (stereo not shown) [Example 34], the pest or weed control at 5000 g/ha in test [1], in [6], in test [10] and in [15] was 0% throughout. In addition, the pest or weed control at 100 ppm in test [2] stood at 60%; in test [3], 94%; in [4], 100%; in test [7], 0%; in test [8], 0%; in [9], 69%. Also, the pest or weed control at 100 ppm in test [11] is 86%; in [13], 66%; in [14] it was 16%. The responders at 150 mg/kg in test [5] (setting [17]), in [5] (setting [18]) and in test [5] (setting [19]) was 100% each time. The MIC in test [12] stood at 0.03 µg/mL (≈ 0.0833 µM); in test [16], 3.2 µg/mL (≈ 8.88 µM).
